According to patent US6896895B2, “Carotenoid esters, carotenoid-enriched feeds, and methods of pigmenting foods and foodstuffs” (DSM IP Assets B.V., priority 2000, dated 2005):

Columns and labels:
[1] = tested on: egg yolk; assay: Egg yolk colour: reflectance colorimetry and Roche Yolk Colour Fan; type: in vivo, laying hens (ISA Brown); parameters: key to Chroma C*ab Value: CIE L*a*b* chroma C* value; key to Color Fan Value / Color Fan Value Value: visual score on Roche Yolk Colour Fan (RYCF, 1993 version); key to Color Fan Value, Pigmentation: − = off color; + = good color; conditions: laying hens; for Color Fan Value % of Controls / Chroma C*ab % of Controls / Color Hue h*ab % of Controls / Chroma C*ab Value / Color Fan Value / Color Fan Value, Pigmentation / Color Hue h*ab Value / Color Fan Value Value: egg yolk; for quality in terms of deposition rate and color intensity (chroma C*a*b*) in the egg yolk: compared to the control
How it was run: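 ISA Brown laying hens, depleted at least 28 days on low-carotenoid basal diet (<2 mg xanthophylls/kg), fed pigment-supplemented mash ad libitum for three weeks. Pooled yolks of three to six eggs scored with Roche Yolk Colour Fan and measured by reflectance colorimetry (D65, 8°) as CIE L*a*b*, h*, C*; values average four yolk pools.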

[2] = Carotenoid ester content and deposition rate in egg yolk of laying hens (HPLC); type: in vivo, laying hens (ISA Brown); parameters: Deposition Rate Value: unit not given here; conditions: for Deposition Rate Target Values % of Controls / Ethyl β-apo-8′-carotenoate Equivalents % of Controls / Deposition Rate % of Controls / Deposition Rate Target Values / Ethyl β-apo-8′-carotenoate Equivalents / Deposition Rate Value: egg yolk; for Deposition Rate % of Controls / Deposition Rate Value: Table 9; for concentration in the egg yolk: versus the control
How it was run: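 Hens were first depleted for at least 28 days on a low-carotenoid basal diet (<2 mg total xanthophylls/kg, also the control diet), then fed mash supplemented with the pigments ad libitum for three weeks. Pooled homogenised yolk was extracted with ethanol/n-hexane and analysed by HPLC, calibrated with all-E ethyl β-apo-8′-carotenoate. Response factors were adjusted by molecular weight, and Z-isomers were corrected by a factor of 1.4.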

[3] = trial H-25/99, 5.0 mg/kg feed, Table 9

Structure (SMILES) | Color Fan Value % of Controls ([1]; average over doses, Table 7) | Chroma C*ab % of Controls ([1]; average over doses, Table 9) | Color Fan Value % of Controls ([1]; average over doses, Table 9) | Color Hue h*ab % of Controls ([1]; average over doses, Table 9) | Chroma C*ab % of Controls ([1]; trial H-25/99, 5.0 mg/kg feed) | Chroma C*ab Value ([1]; trial H-25/99, 5.0 mg/kg feed) | Color Fan Value ([1]; trial H-25/99, 5.0 mg/kg feed) | Color Fan Value % of Controls ([1]; trial H-25/99, 5.0 mg/kg feed) | Color Fan Value, Pigmentation ([1]; trial H-25/99, 5.0 mg/kg feed) | Color Hue h*ab % of Controls ([1]; trial H-25/99, 5.0 mg/kg feed) | Color Hue h*ab Value ([1]; trial H-25/99, 5.0 mg/kg feed) | Color Fan Value % of Controls [1, 3] | Color Fan Value Value [1, 3] | Color Fan Value, Pigmentation [1, 3] | quality in terms of deposition rate and color intensity (chroma C*a*b*) in the egg yolk [1] | Deposition Rate Target Values % of Controls ([2]; average over doses, Table 7) | Ethyl β-apo-8′-carotenoate Equivalents % of Controls ([2]; average over doses, Table 7) | Deposition Rate % of Controls ([2]; average over doses) | Deposition Rate Target Values ([2]; trial H-25/99, 5.0 mg/kg feed) | Deposition Rate Target Values % of Controls ([2]; trial H-25/99, 5.0 mg/kg feed) | further results
CC(C=CC=C(C)C=CC1=C(C)CCCC1(C)C)=CC=CC=C(C)C=CC=C(C)C(=O)OC(C)(C)C [compound (18), tert. butyl beta-apo-8′-carotenoate] | 87% | 101% | 87% | 85% | 101% | 52 | 7 | 87% | + | 85% | 74 | 87% | 7 | + | comparable quality | 119% | 106% | 119% | 60.7% | 119% | Ethyl β-apo-8′-carotenoate Equivalents ([2]; trial H-25/99, 5.0 mg/kg feed): 16.6 mg/kg; Ethyl β-apo-8′-carotenoate Equivalents % of Controls ([2]; trial H-25/99, 5.0 mg/kg feed): 106%; Deposition Rate % of Controls ([2]; trial H-25/99, 5.0 mg/kg feed): 119%; Deposition Rate Value ([2]; trial H-25/99, 5.0 mg/kg feed): 61; concentration in the egg yolk [2]: in the range of the control
CCCC(C)OC(=O)C(C)=CC=CC(C)=CC=CC=C(C)C=CC=C(C)C=CC1=C(C)CCCC1(C)C (stereo not drawn) [compound (19), 2-pentyl beta-apo-8′-carotenoate] | 87% | 113% | 87% | 96% | 113% | 58 | 7 | 87% | + | 96% | 82 | 87% | 7 | + | comparable quality | 101% | 94% | 101% | 51.2% | 101% | Ethyl β-apo-8′-carotenoate Equivalents ([2]; trial H-25/99, 5.0 mg/kg feed): 14.6 mg/kg; Ethyl β-apo-8′-carotenoate Equivalents % of Controls ([2]; trial H-25/99, 5.0 mg/kg feed): 94%; Deposition Rate % of Controls ([2]; trial H-25/99, 5.0 mg/kg feed): 101%; Deposition Rate Value ([2]; trial H-25/99, 5.0 mg/kg feed): 51; concentration in the egg yolk [2]: in the range of the control
